The values that follow come from patent publication US11046725B2, “Galactoside inhibitor of galectins” (GALECTO BIOTECH AB, priority 2018, dated 2021).

The target of assay [1] is Galectin-1 (Homo sapiens (Human), UniProt P09382). The assay is described as follows: Fluorescence anisotropy assay, inhibition of galectin / fluorescein tagged saccharide probe interaction. The assay is classed as binding.
Assay [2] concerns the target Galectin-3 (Homo sapiens (Human), UniProt P17931). The description is as above. In kind it is binding. The method, then:
Experimental Procedures (Evaluation of Kd Values)
The affinity of Example 1-33 for galectins were determined by a fluorescence anisotropy assay where the compound was used as an inhibitor of the interaction between galectin and a fluorescein tagged saccharide probe as described Sörme, P., Kahl-Knutsson, B., Huflejt, M., Nilsson, U. J., and Leffler H. (2004) Fluorescence polarization as an analytical tool to evaluate galectin-ligand interactions. Anal. Biochem. 334: 36-47, (Sörme et al., 2004) and Monovalent interactions of Galectin-1 By Salomonsson, Emma; Larumbe, Amaia; Tejler, Johan; Tullberg, Erik; Rydberg, Hanna; Sundin, Anders; Khabut, Areej; Frejd, Torbjorn; Lobsanov, Yuri D.; Rini, James M.; et al, From Biochemistry (2010), 49(44), 9518-9532, (Salomonsson et al., 2010).

Broadly, the Kd is the equilibrium constant for the complex coming apart. A higher Kd goes with weaker binding.

Sequence of Galectin-1 (P09382 whole entry): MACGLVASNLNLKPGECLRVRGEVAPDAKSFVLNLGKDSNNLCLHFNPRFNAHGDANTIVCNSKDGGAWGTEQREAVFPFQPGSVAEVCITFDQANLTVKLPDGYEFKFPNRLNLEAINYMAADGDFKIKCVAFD
Sequence of Galectin-3 (P17931 whole entry): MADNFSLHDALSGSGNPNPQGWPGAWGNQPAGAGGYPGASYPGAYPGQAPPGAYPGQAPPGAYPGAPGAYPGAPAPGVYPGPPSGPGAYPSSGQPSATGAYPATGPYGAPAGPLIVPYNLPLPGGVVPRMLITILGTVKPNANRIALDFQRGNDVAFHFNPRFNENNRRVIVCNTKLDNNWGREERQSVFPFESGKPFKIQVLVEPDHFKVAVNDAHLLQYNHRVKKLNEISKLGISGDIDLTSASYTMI

In the case of `N#Cc1ncc(S[C@H]2O[C@H](CO)[C@H](O)[C@H](n3cc(-c4nc(Cl)cs4)nn3)[C@H]2O)cc1Br` [Example 6, 5-Bromo-6-cyano-3-pyridyl 3-[4-(4-chlorothiazol-2-yl)-1H-1,2,3-triazol-1-yl]-3-deoxy-1-thio-α-D-galactopyranoside], the Kd came to 68 nM in assay [1] and 250 nM in assay [2].

As to `OC[C@H]1O[C@H](Sc2cc(Cl)c(F)c(Cl)c2)[C@H](O)[C@@H](n2cc(-c3csc(O)n3)nn2)[C@H]1O` [Example 18, 3,5-Dichloro-4-fluoro-phenyl 3-deoxy-3-[4-(2-hydroxythiazol-4-yl)-1H-1,2,3-triazol-1-yl]-1-thio-α-D-galactopyranoside], the Kd came out at 27 nM in assay [1] and 9700 nM in assay [2].

As for `N#Cc1ncc(Cl)cc1S[C@H]1O[C@H](CO)[C@H](O)[C@H](n2cc(-c3nc(Cl)cs3)nn2)[C@H]1O` [Example 5, 5-Chloro-2-cyano-pyridine-3-yl 3-[4-(4-chlorothiazol-2-yl)-1H-1,2,3-triazol-1-yl]-3-deoxy-1-thio-α-D-galactopyranoside], the Kd in assay [1] amounted to 95 nM; in assay [2], 220 nM.

As to `OC[C@H]1O[C@H](Sc2ccc(C(F)(F)F)c(Cl)c2)[C@H](O)[C@@H](n2cc(-c3csc(O)n3)nn2)[C@H]1O` [Example 24, 3-Chloro-4-trifluoromethylphenyl 3-deoxy-3-[4-(2-hydroxythiazol-4-yl)-1H-1,2,3-triazol-1-yl]-1-thio-α-D-galactopyranoside], the Kd was 71 nM in assay [1] and 6500 nM in assay [2].

Turning to `N#Cc1ncc(Br)cc1S[C@H]1O[C@H](CO)[C@H](O)[C@H](n2cc(-c3csc(O)n3)nn2)[C@H]1O` [Example 14, 5-Bromo-2-cyano-pyridine-3-yl 3-deoxy-3-[4-(2-hydroxythiazol-4-yl)-1H-1,2,3-triazol-1-yl]-1-thio-α-D-galactopyranoside], the Kd in assay [1] came to 33 nM; in assay [2], 2600 nM.

`N#Cc1ccc(S[C@H]2O[C@H](CO)[C@H](O)[C@H](n3cc(-c4csc(O)n4)nn3)[C@H]2O)cc1Br` [Example 22, 3-Bromo-4-cyanophenyl 3-deoxy-3-[4-(2-hydroxythiazol-4-yl)-1H-1,2,3-triazol-1-yl]-1-thio-α-D-galactopyranoside]: the figures for the Kd in assay [1] and in assay [2] were 63 nM and 6000 nM, respectively.

For `OC[C@H]1O[C@H](Sc2cc(Cl)c(Cl)cc2F)[C@H](O)[C@@H](n2cc(-c3csc(O)n3)nn2)[C@H]1O` [Example 31, 3,4-Dichloro-6-fluoro-phenyl 3-deoxy-3-[4-(2-hydroxythiazol-4-yl)-1H-1,2,3-triazol-1-yl]-1-thio-α-D-galactopyranoside], the Kd turned out to be 13 nM in assay [1] and 4600 nM in assay [2].

Take `OC[C@H]1O[C@H](Sc2cnc(C(F)(F)F)c(Br)c2)[C@H](O)[C@@H](n2cc(-c3nc(Cl)c(Cl)s3)nn2)[C@H]1O` [Example 29, 5-Bromo-6-trifluoromethyl-pyridine-3-yl 3-deoxy-3-[4-(4,5-dichlorothiazol-2-yl)-1H-1,2,3-triazol-1-yl]-1-thio-α-D-galactopyranoside]: the results for the Kd in assay [1] and in assay [2] were 390 nM and 69 nM, respectively.

Turning to `OC[C@H]1O[C@H](Sc2ccc(Cl)c(Cl)c2)[C@H](O)[C@@H](n2cc(-c3csc(O)n3)nn2)[C@H]1O` [Example 12, 3,4-Dichlorophenyl 3-deoxy-3-[4-(2-hydroxythiazol-4-yl)-1H-1,2,3-triazol-1-yl]-1-thio-α-D-galactopyranoside], the results for the Kd in assay [1] and in assay [2] were 58 nM and 8600 nM, respectively.

In the case of `O=C(O)c1ncc(Cl)cc1S[C@H]1O[C@H](CO)[C@H](O)[C@H](n2cc(-c3csc(O)n3)nn2)[C@H]1O` [Example 28, 2-carboxy-5-chloropyridyl 3-deoxy-3-[4-(2-hydroxythiazol-4-yl)-1H-1,2,3-triazol-1-yl]-1-thio-α-D-galactopyranoside], the Kd in assay [1] worked out at 46 nM; in assay [2], 5700 nM.

Turning to `N#Cc1ncc(S[C@H]2O[C@H](CO)[C@H](O)[C@H](n3cc(-c4csc(O)n4)nn3)[C@H]2O)cc1Br` [Example 15, 5-Bromo-6-cyano-3-pyridyl 3-deoxy-3-[4-(2-hydroxythiazol-4-yl)-1H-1,2,3-triazol-1-yl]-1-thio-α-D-galactopyranoside], the Kd in assay [1] was found to be 19 nM; in assay [2] it was 2800 nM.

`N#Cc1ncc(S[C@H]2O[C@H](CO)[C@H](O)[C@H](n3cc(-c4nc(Cl)cs4)nn3)[C@H]2O)cc1Cl` [Example 3, 5-Chloro-6-cyano-pyridine-3-yl 3-[4-(4-chlorothiazol-2-yl)-1H-1,2,3-triazol-1-yl]-3-deoxy-1-thio-α-D-galactopyranoside]: the Kd in assay [1] turned out to be 95 nM; in assay [2], 420 nM.

`CN(C)C(=O)c1ncc(Cl)cc1S[C@H]1OC(CO)[C@H](O)[C@H](n2cc(-c3csc(O)n3)nn2)C1O` (stereo partly drawn) [Example 33, 5-Chloro-N,N′-dimethyl-picolinamide-3-yl 3-deoxy-3-[4-(2-hydroxythiazol-4-yl)-1H-1,2,3-triazol-1-yl]-1-thio-α-D-galactopyranoside]: the results for the Kd in assay [1] and in assay [2] were 54 nM and 1700 nM, respectively.

`OC[C@H]1O[C@H](Sc2cnc(C(F)(F)F)c(Br)c2)[C@H](O)[C@@H](n2cc(-c3nc(Cl)cs3)nn2)[C@H]1O` [Example 1, 5-Bromo-6-trifluoromethyl-pyridine-3-yl 3-[4-(4-chlorothiazol-2-yl)-1H-1,2,3-triazol-1-yl]-3-deoxy-1-thio-α-D-galactopyranoside]: the Kd in assay [1] was 110 nM; in assay [2], 250 nM.

`OC[C@H]1O[C@H](Sc2cnc(C(F)(F)F)c(Br)c2)[C@H](O)[C@@H](n2cc(-c3nc(Br)cs3)nn2)[C@H]1O` [Example 2, 5-Bromo-6-trifluoromethyl-pyridine-3-yl 3-[4-(4-bromothiazol-2-yl)-1H-1,2,3-triazol-1-yl]-3-deoxy-1-thio-α-D-galactopyranoside]: the Kd is 160 nM in assay [1] and 580 nM in assay [2].

`N#Cc1ncc(Br)cc1S[C@H]1O[C@H](CO)[C@H](O)[C@H](n2cc(-c3nc(Cl)cs3)nn2)[C@H]1O` [Example 4, 5-Bromo-2-cyano-pyridine-3-yl 3-[4-(4-chlorothiazol-2-yl)-1H-1,2,3-triazol-1-yl]-3-deoxy-1-thio-α-D-galactopyranoside]: the Kd was found to be 85 nM in assay [1] and 200 nM in assay [2].

As to `Cc1ccc(S[C@H]2O[C@H](CO)[C@H](O)[C@H](n3cc(-c4csc(O)n4)nn3)[C@H]2O)cc1Cl` [Example 26, 3-Chloro-4-methylphenyl 3-deoxy-3-[4-(2-hydroxythiazol-4-yl)-1H-1,2,3-triazol-1-yl]-1-thio-α-D-galactopyranoside], the Kd in assay [1] amounted to 82 nM; in assay [2] it was 6600 nM.

Consider `OC[C@H]1O[C@H](Sc2cc(Br)c(F)c(Br)c2)[C@H](O)[C@@H](n2cc(-c3csc(O)n3)nn2)[C@H]1O` [Example 21, 3,5-dibromo-4-fluorophenyl 3-deoxy-3-[4-(2-hydroxythiazol-4-yl)-1H-1,2,3-triazol-1-yl]-1-thio-α-D-galactopyranoside], for which the Kd in assay [1] was 50 nM; in assay [2] it was 4600 nM.

Consider `OC[C@H]1O[C@H](Sc2ccc(Cl)c(Cl)c2)[C@H](O)[C@@H](n2cc(-c3csc(Cl)n3)nn2)[C@H]1O` [Example 7, 3,4-Dichlorophenyl 3-[4-(2-chlorothiazol-4-yl)-1H-1,2,3-triazol-1-yl]-3-deoxy-1-thio-α-D-galactopyranoside], for which the results for the Kd in assay [1] and in assay [2] were 490 nM and 1400 nM, respectively.

As to `OC[C@H]1O[C@H](Sc2cnc(C(F)(F)F)c(Cl)c2)[C@H](O)[C@@H](n2cc(-c3csc(O)n3)nn2)[C@H]1O` [Example 17, 5-Chloro-6-trifluoromethyl-pyridin-3-yl 3-deoxy-3-[4-(2-hydroxythiazol-4-yl)-1H-1,2,3-triazol-1-yl]-1-thio-α-D-galactopyranoside], the Kd in assay [1] was found to be 28 nM; in assay [2], 2800 nM.

Regarding `OC[C@H]1O[C@H](Sc2cc(Cl)c(Cl)c(Cl)c2)[C@H](O)[C@@H](n2cc(-c3csc(O)n3)nn2)[C@H]1O` [Example 20, 3,4,5-trichlorophenyl 3-deoxy-3-[4-(2-hydroxythiazol-4-yl)-1H-1,2,3-triazol-1-yl]-1-thio-α-D-galactopyranoside], the figures for the Kd in assay [1] and in assay [2] were 56 nM and 6000 nM, respectively.

As for `CN(C)C(=O)c1ccc(Cl)cc1S[C@H]1OC(CO)[C@H](O)[C@H](n2cc(-c3csc(O)n3)nn2)C1O` (stereo partly drawn) [Example 32, 4-Chloro-N,N′-dimethylbenzamide-2-yl 3-deoxy-3-[4-(2-hydroxythiazol-4-yl)-1H-1,2,3-triazol-1-yl]-1-thio-α-D-galactopyranoside], the Kd in assay [1] worked out at 44 nM; in assay [2] it was 2100 nM.

As to `N#Cc1ncc(Cl)cc1S[C@H]1O[C@H](CO)[C@H](O)[C@H](n2cc(-c3csc(O)n3)nn2)[C@H]1O` [Example 16, 5-Chloro-2-cyano-3-pyridyl 3-deoxy-3-[4-(2-hydroxythiazol-4-yl)-1H-1,2,3-triazol-1-yl]-1-thio-α-D-galactopyranoside], the Kd was 6 nM in assay [1] and 2200 nM in assay [2].

On to `N#Cc1ncc(S[C@H]2O[C@H](CO)[C@H](O)[C@H](n3cc(-c4csc(O)n4)nn3)[C@H]2O)cc1Cl` [Example 13, 5-Chloro-6-cyano-pyridine-3-yl 3-deoxy-3-[4-(2-hydroxythiazol-4-yl)-1H-1,2,3-triazol-1-yl]-1-thio-α-D-galactopyranoside], for which the Kd in assay [1] was found to be 38 nM; in assay [2] it was 8000 nM.
